Experimental findings from the supplement of paper PMC10307832 are described below.

What all share (assay): relative viability (nuclei count vs DMSO), 5 days (fraction); higher = more cells survive
Compound in the assay “Imatinib + Phenformin”: Cc1ccc(NC(=O)c2ccc(CN3CCN(C)CC3)cc2)cc1Nc1nccc(-c2cccnc2)n1 [Imatinib] + N=C(N)NC(=N)NCCc1ccccc1 [Phenformin] (partner 250 µM)
A digest of the protocol:
(§1)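 Medians of duplicate plates are given as relative viability. That measure is the nuclei count in treated wells divided by the count in vehicle wells. Counts were taken on 4× images of lung cancer cell lines in 1536-well plates, 5 days after pin-tool dosing the day after seeding with one drug alone or a fixed anchor-drug dose plus five library-drug doses (not always all listed) in √10 steps.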

Compound in the assay “Imatinib + Navitoclax”: Cc1ccc(NC(=O)c2ccc(CN3CCN(C)CC3)cc2)cc1Nc1nccc(-c2cccnc2)n1 [Imatinib] + CC1(C)CCC(c2ccc(Cl)cc2)=C(CN2CCN(c3ccc(C(=O)NS(=O)(=O)c4ccc(N[C@H](CCN5CCOCC5)CSc5ccccc5)c(S(=O)(=O)C(F)(F)F)c4)cc3)CC2)C1 [Navitoclax] (partner 0.5 µM)
The method, boiled down:
as §1

Compound in the assay “Imatinib + Palbociclib”: Cc1ccc(NC(=O)c2ccc(CN3CCN(C)CC3)cc2)cc1Nc1nccc(-c2cccnc2)n1 [Imatinib] + CC(=O)c1c(C)c2cnc(Nc3ccc(N4CCNCC4)cn3)nc2n(C2CCCC2)c1=O [Palbociclib] (partner 0.5 µM)
The method, boiled down:
as §1

Compound in the assay “Imatinib + AZD7762”: Cc1ccc(NC(=O)c2ccc(CN3CCN(C)CC3)cc2)cc1Nc1nccc(-c2cccnc2)n1 [Imatinib] + NC(=O)Nc1cc(-c2cccc(F)c2)sc1C(=O)N[C@H]1CCCNC1 [AZD7762] (partner 0.2 µM)
The method, boiled down: as §1

With SK-LU-1, the relative viability was found to be 0.56 with Imatinib + Phenformin (first compound 0.02 µM); 0.499 in the assay with Imatinib + Phenformin (first compound 0.06325 µM); 0.499 in the assay with Imatinib + Phenformin (first compound 0.2 µM); 0.472 with Imatinib + Phenformin (first compound 0.6325 µM); 0.475 with Imatinib + Phenformin (first compound 2 µM); 1.14 with Imatinib + Navitoclax (first compound 0.02 µM). Moreover, the relative viability came to 0.885 with Imatinib + Navitoclax (first compound 0.2 µM); 0.861 with Imatinib + Navitoclax (first compound 0.6325 µM); 1.01 with Imatinib + Navitoclax (first compound 2 µM); 0.427 in the assay with Imatinib + Palbociclib (first compound 0.02 µM); 0.427 in the assay with Imatinib + Palbociclib (first compound 0.06325 µM); 0.418 with Imatinib + Palbociclib (first compound 0.2 µM). Further, the relative viability was 0.34 in the assay with Imatinib + Palbociclib (first compound 0.6325 µM) and 0.425 with Imatinib + Palbociclib (first compound 2 µM).

NCI-H23: the relative viability in the assay with Imatinib + Phenformin (first compound 0.02 µM) amounted to 0.863; with Imatinib + Phenformin (first compound 0.06325 µM), 0.84; with Imatinib + Phenformin (first compound 0.2 µM), 0.768; with Imatinib + Phenformin (first compound 0.6325 µM), 0.764; in the assay with Imatinib + Phenformin (first compound 2 µM), 0.731; in the assay with Imatinib + Navitoclax (first compound 0.02 µM), 1.04. The relative viability came to 0.916 in the assay with Imatinib + Navitoclax (first compound 0.06325 µM); 1.1 with Imatinib + Navitoclax (first compound 0.2 µM); 0.738 with Imatinib + Navitoclax (first compound 0.6325 µM); 0.87 with Imatinib + Navitoclax (first compound 2 µM); 0.27 with Imatinib + AZD7762 (first compound 0.02 µM); 0.285 in the assay with Imatinib + AZD7762 (first compound 0.06325 µM). Besides, the relative viability was 0.23 in the assay with Imatinib + AZD7762 (first compound 0.2 µM); 0.203 with Imatinib + AZD7762 (first compound 0.6325 µM); 0.21 with Imatinib + AZD7762 (first compound 2 µM); 0.455 with Imatinib + Palbociclib (first compound 0.02 µM); 0.66 with Imatinib + Palbociclib (first compound 0.06325 µM); 0.521 in the assay with Imatinib + Palbociclib (first compound 0.2 µM). Further, the relative viability worked out at 0.467 in the assay with Imatinib + Palbociclib (first compound 0.6325 µM) and 0.479 with Imatinib + Palbociclib (first compound 2 µM).

With NCI-H1944, the relative viability with Imatinib + Phenformin (first compound 0.02 µM) was found to be 0.185; with Imatinib + Phenformin (first compound 0.06325 µM) it was 0.2; with Imatinib + Phenformin (first compound 0.2 µM), 0.188; in the assay with Imatinib + Phenformin (first compound 0.6325 µM) it was 0.199; in the assay with Imatinib + Phenformin (first compound 2 µM), 0.162; with Imatinib + Navitoclax (first compound 0.02 µM), 1.03. Moreover, the relative viability amounted to 1.05 in the assay with Imatinib + Navitoclax (first compound 0.2 µM); 1.07 in the assay with Imatinib + Navitoclax (first compound 0.6325 µM); 1.08 with Imatinib + Navitoclax (first compound 2 µM); 0.628 with Imatinib + AZD7762 (first compound 0.02 µM); 0.556 with Imatinib + AZD7762 (first compound 0.06325 µM); 0.452 in the assay with Imatinib + AZD7762 (first compound 0.2 µM). Besides, the relative viability in the assay with Imatinib + AZD7762 (first compound 0.6325 µM) came out at 0.37; with Imatinib + AZD7762 (first compound 2 µM), 0.423; with Imatinib + Palbociclib (first compound 0.02 µM) it was 0.347; in the assay with Imatinib + Palbociclib (first compound 0.06325 µM) it was 0.306; with Imatinib + Palbociclib (first compound 0.2 µM), 0.373; in the assay with Imatinib + Palbociclib (first compound 0.6325 µM), 0.316. Also, the relative viability in the assay with Imatinib + Palbociclib (first compound 2 µM) was 0.42.

In the case of NCI-H661, the relative viability with Imatinib + Phenformin (first compound 0.02 µM) came to 0.245; in the assay with Imatinib + Phenformin (first compound 0.06325 µM), 0.255; in the assay with Imatinib + Phenformin (first compound 0.2 µM) it was 0.259; with Imatinib + Phenformin (first compound 0.6325 µM) it was 0.263; in the assay with Imatinib + Phenformin (first compound 2 µM), 0.258; with Imatinib + Palbociclib (first compound 0.02 µM), 0.428. For the same cell line, the relative viability with Imatinib + Palbociclib (first compound 0.06325 µM) was 0.368; in the assay with Imatinib + Palbociclib (first compound 0.2 µM) it was 0.393; with Imatinib + Palbociclib (first compound 0.6325 µM), 0.394; with Imatinib + Palbociclib (first compound 2 µM), 0.412.

Consider NCI-H1395, for which the relative viability in the assay with Imatinib + Phenformin (first compound 0.02 µM) was 0.472; with Imatinib + Phenformin (first compound 0.06325 µM) it was 0.4; with Imatinib + Phenformin (first compound 0.2 µM), 0.438; with Imatinib + Phenformin (first compound 0.6325 µM) it was 0.471; with Imatinib + Phenformin (first compound 2 µM), 0.447; with Imatinib + Navitoclax (first compound 0.02 µM) it was 1.07. Further, the relative viability with Imatinib + Navitoclax (first compound 0.2 µM) came out at 1.04; in the assay with Imatinib + Navitoclax (first compound 0.6325 µM), 0.979; with Imatinib + Navitoclax (first compound 2 µM) it was 0.989; in the assay with Imatinib + AZD7762 (first compound 0.02 µM), 0.369; with Imatinib + AZD7762 (first compound 0.2 µM), 0.343; with Imatinib + AZD7762 (first compound 0.6325 µM), 0.376. Also, the relative viability is 0.393 with Imatinib + AZD7762 (first compound 2 µM); 0.622 in the assay with Imatinib + Palbociclib (first compound 0.02 µM); 0.579 with Imatinib + Palbociclib (first compound 0.2 µM); 0.526 with Imatinib + Palbociclib (first compound 0.6325 µM); 0.589 with Imatinib + Palbociclib (first compound 2 µM).

Consider LCLC-97TM1, for which the relative viability was 0.409 with Imatinib + Phenformin (first compound 0.02 µM); 0.458 in the assay with Imatinib + Phenformin (first compound 0.2 µM); 0.498 with Imatinib + Phenformin (first compound 0.6325 µM); 0.437 with Imatinib + Phenformin (first compound 2 µM); 0.605 with Imatinib + Navitoclax (first compound 0.2 µM); 0.554 in the assay with Imatinib + Navitoclax (first compound 0.6325 µM). Further, the relative viability amounted to 0.399 in the assay with Imatinib + Navitoclax (first compound 2 µM); 0.28 with Imatinib + AZD7762 (first compound 0.02 µM); 0.238 with Imatinib + AZD7762 (first compound 0.2 µM); 0.258 in the assay with Imatinib + AZD7762 (first compound 0.6325 µM); 0.177 with Imatinib + AZD7762 (first compound 2 µM); 0.25 with Imatinib + Palbociclib (first compound 0.02 µM). Further, the relative viability with Imatinib + Palbociclib (first compound 0.2 µM) was 0.267; in the assay with Imatinib + Palbociclib (first compound 0.6325 µM), 0.172; with Imatinib + Palbociclib (first compound 2 µM), 0.219.

For EPLC-272H, the relative viability with Imatinib + Phenformin (first compound 0.02 µM) was found to be 0.308; in the assay with Imatinib + Phenformin (first compound 0.2 µM) it was 0.273; in the assay with Imatinib + Phenformin (first compound 0.6325 µM) it was 0.322; in the assay with Imatinib + Phenformin (first compound 2 µM), 0.442; in the assay with Imatinib + Navitoclax (first compound 0.02 µM), 1.22; with Imatinib + Navitoclax (first compound 0.2 µM), 1.12. Further, the relative viability with Imatinib + Navitoclax (first compound 0.6325 µM) turned out to be 1.11; in the assay with Imatinib + Navitoclax (first compound 2 µM) it was 1.06; with Imatinib + AZD7762 (first compound 0.02 µM), 0.218; with Imatinib + AZD7762 (first compound 0.6325 µM), 0.156; in the assay with Imatinib + AZD7762 (first compound 2 µM), 0.15; in the assay with Imatinib + Palbociclib (first compound 0.02 µM), 0.309. Further, the relative viability with Imatinib + Palbociclib (first compound 0.6325 µM) is 0.34; with Imatinib + Palbociclib (first compound 2 µM) it was 0.297.

As to EKVX, the relative viability with Imatinib + Phenformin (first compound 0.06325 µM) is 0.249; with Imatinib + Phenformin (first compound 0.2 µM) it was 0.22; in the assay with Imatinib + Phenformin (first compound 0.6325 µM), 0.226; with Imatinib + Phenformin (first compound 2 µM), 0.242; with Imatinib + Navitoclax (first compound 0.02 µM) it was 1.18; with Imatinib + Navitoclax (first compound 0.06325 µM) it was 0.859. The relative viability came to 0.983 with Imatinib + Navitoclax (first compound 0.2 µM); 0.929 with Imatinib + Navitoclax (first compound 0.6325 µM); 0.973 with Imatinib + Navitoclax (first compound 2 µM); 0.617 with Imatinib + AZD7762 (first compound 0.2 µM); 0.723 in the assay with Imatinib + AZD7762 (first compound 0.6325 µM); 0.377 in the assay with Imatinib + Palbociclib (first compound 0.02 µM). For the same cell line, the values for the relative viability in the assay with Imatinib + Palbociclib (first compound 0.2 µM) and in the assay with Imatinib + Palbociclib (first compound 0.6325 µM) were 0.384 and 0.456, respectively.
